Holding throughout (assay type): cell-based
Experiment [1] concerns the target T1, hTRPV1 (Homo sapiens, UniProt Q8NER1).
T1 construct: host or cells: HEK293T cells, transient transfection with pEAK10-hTRPV1
Kind of experiment: Fura-2 AM ratiometric Ca2+ imaging of HEK293T cells transiently expressing hTRPV1 (responding cells %). The settings on record: for activation of hTRPV1 (cytosolic Ca2+ influx, responding cells): extract 300 μg/mL, capsaicin 0.1 μM, ten compounds at 0.1-1 mM; for inhibition of Ca2+ responses induced by the A.rugosa extract in hTRPV1 cells: antagonist: RR 30 μM, CPZ 5 μM, HEK293T cells transiently expressing hTRPV1.
Description: HEK293T cells cultured at 37°C in DMEM supplemented with 10% FBS and 1% penicillin/streptomycin (Invitrogen) were seeded onto 100 mm dishes and transfected with the hTRPV1 expression plasmid using Lipofectamine 2000. After 6 h, the transfected cells were seeded onto 96-well black-wall plates for 24 h prior to their use in experiments.
(§1) Non-hTRPA1-expressing Flp-In 293 cells, HEK293T cells, hTRPA1-Flp-In 293 stable cells, and HEK293T cells transiently expressing hTRPV1 were seeded onto 96-well black-wall imaging plates (BD Falcon Labware, Franklin Lakes, NJ, USA) for 24 h prior to their use in experiments. After 24 h, the cells were washed with assay buffer (130 mM NaCl, 10 mM glucose, 5 mM KCl, 2 mM CaCl2, 1.2 mM MgCl2, and 10 mM HEPES [pH 7.4]) and loaded with the Ca^2+ indicator dye Fura-2AM (5 μM; Invitrogen) in assay buffer for 30 min at 27°C. The cells were rinsed with assay buffer, incubated in 100 μl of assay buffer for >10 min, and then treated with ligand by adding 100 μl of the ligand solution. […] The fluorescence intensity of Fura-2 AM excited at 340 and 380 nm was measured at 510 nm using a computer-controlled filter changer (Lambda DG4; Sutter Instrument Co., San Rafael, CA, USA), an Andor Luca CCD camera (Andor Technology, Belfast, Northern Ireland), and an inverted fluorescence microscope (IX-71; Olympus, Tokyo, Japan). Images were recorded at 3 s intervals and were analyzed using MetaFluor software (Molecular Devices, Sunnyvale, CA, USA).

The target in experiment [2] is T2, hTRPA1 (Homo sapiens, UniProt O75762).
T2 construct: expressed in transfected cells
T2 sequence (O75762 whole entry): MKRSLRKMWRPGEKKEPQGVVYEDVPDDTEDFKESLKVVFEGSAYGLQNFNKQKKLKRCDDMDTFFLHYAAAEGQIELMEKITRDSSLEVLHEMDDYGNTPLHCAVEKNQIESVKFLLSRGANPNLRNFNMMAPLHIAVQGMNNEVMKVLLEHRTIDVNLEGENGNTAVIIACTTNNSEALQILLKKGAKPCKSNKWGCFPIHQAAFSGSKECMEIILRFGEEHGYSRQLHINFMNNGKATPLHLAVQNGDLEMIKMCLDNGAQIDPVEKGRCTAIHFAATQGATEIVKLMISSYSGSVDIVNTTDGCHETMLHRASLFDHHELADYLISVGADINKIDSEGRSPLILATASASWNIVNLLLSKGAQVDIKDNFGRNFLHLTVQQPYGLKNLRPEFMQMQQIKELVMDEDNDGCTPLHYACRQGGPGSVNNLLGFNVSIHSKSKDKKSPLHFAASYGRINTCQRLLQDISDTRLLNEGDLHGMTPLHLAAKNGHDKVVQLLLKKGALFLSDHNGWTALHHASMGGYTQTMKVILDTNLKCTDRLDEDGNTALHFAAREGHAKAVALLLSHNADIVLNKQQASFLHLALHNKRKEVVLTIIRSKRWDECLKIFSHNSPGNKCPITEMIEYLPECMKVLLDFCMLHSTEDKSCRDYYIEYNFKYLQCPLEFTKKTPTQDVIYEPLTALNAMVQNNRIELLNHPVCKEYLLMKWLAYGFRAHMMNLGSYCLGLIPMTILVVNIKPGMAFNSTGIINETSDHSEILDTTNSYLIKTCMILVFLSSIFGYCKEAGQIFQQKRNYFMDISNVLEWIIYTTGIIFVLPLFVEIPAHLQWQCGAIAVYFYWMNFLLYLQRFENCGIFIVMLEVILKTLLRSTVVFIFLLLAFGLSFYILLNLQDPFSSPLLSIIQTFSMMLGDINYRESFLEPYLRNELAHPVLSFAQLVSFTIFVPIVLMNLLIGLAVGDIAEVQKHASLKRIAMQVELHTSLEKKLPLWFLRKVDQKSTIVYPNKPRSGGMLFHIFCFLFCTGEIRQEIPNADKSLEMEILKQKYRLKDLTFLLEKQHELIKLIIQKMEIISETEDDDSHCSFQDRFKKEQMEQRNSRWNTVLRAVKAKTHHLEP
Description: Whole-cell patch clamp recording of hTRPA1 currents. To be noted: for induction of hTRPA1 inward currents: holding -70 mV, 30 s application, hTRPA1-Flp-In 293 stable cells and HEK293T cells transiently expressing hTRPA1, AITC 30 μM, 4-allylanisole 3 mM, p-anisaldehyde 6 mM, L-carveol 1.8 mM, methyl eugenol 900 μM, trans-p-methoxycinnamaldehyde 1 mM. On the procedure: For the transient expression of hTRPA1, HEK293T cells (ATCC: CRL-11268) cultured at 37°C in DMEM supplemented with 10% FBS and 1% penicillin/streptomycin (Invitrogen) were transfected using Lipofectamine 2000 (Invitrogen) and 0.1μg of cDNA encoding tetrameric red fluorescence protein (DsRed) was co-transfected as a marker for successfully transfected cells. The hTRPA1expressing plasmid was generously given to us from Kyeongjin Kang (Sungkyunkwan University School of Medicine, Suwon, Korea). The next day, cells were plated onto poly-L-lysine (0.1 mg/ml, Sigma-Aldrich) coated chips, and the fluorescent cells were studied within 2 days after transfection.
Cells were voltage clamped in the whole-cell recording configuration at room temperature (22–25°C). The resistance of electrodes pulled from glass micropipette capillaries (Sutter Instrument Co., Novato, CA, USA) was 2–2.5 MΩ with >60% compensation of series resistance errors. Fast and slow capacitances were compensated before application of the test pulse. Membrane currents were recorded using a HEKA EPC-10 amplifier with pulse software (HEKA Elektronik, Lambrecht, Germany). The pipette solution used for recording hTRPA1 currents contained 140 mM KCl, 5 mM MgCl2, 10 mM HEPES, 0.1 mM 1,2-bis(2-aminophenoxy)ethane-N,N,N',N'-tetraacetic acid (BAPTA), 3 mM Na2ATP, and 0.1 mM Na3GTP (adjusted to pH 7.4 with KOH). The external Ringer’s solution used for recording hTRPA1 currents contained 160 mM NaCl, 5 mM KCl, 1 mM MgCl2, 2 mM EGTA, 10 mM glucose, and 10 mM HEPES (adjusted to pH 7.4with NaOH). hTRPA1 currents were recorded by holding the cell at -70 mV. The following reagents were obtained: BAPTA, Na2ATP, Na3GTP, and EGTA (Sigma-Alrich), HEPES (Calbiochem, San Diego, CA, USA), and other chemicals (Merck, Township, NJ, USA).

For experiment [3], the target named is T2, hTRPA1. Kind of experiment: Cytosolic Ca2+ measurement with Fluo-4 AM on a fluorescence plate reader (FlexStation III), ΔRFU dose-response. The settings on record: for Hill slope of Ca2+ concentration-response curve: n = 7; for agonist type at hTRPA1 (full / partial): judged from maximum ΔRFU versus AITC.
Description: Flp-In 293 cells stably expressing hTRPA1 [22] were a gift from Dr. Takumi Misaka (University of Tokyo, Tokyo, Japan). The hTRPA1-expressing cells were maintained in Dulbecco’s modified Eagle’s medium (DMEM; Invitrogen, Carlsbad, CA, USA) containing 10% fetal bovine serum (FBS; Invitrogen) and 0.2% hygromycin B (Invitrogen). […] All cells were incubated at 37°C in a humidified atmosphere containing 5% CO2. Cultured hTRPA1-expressing cells and Flp-In 293 cells were seeded onto 96-well black-wall plates for 24 h prior to their use in experiments.
hTRPA1-Flp-In 293 stable cells were seeded onto 96-well black-wall CellBIND Surface plates (Corning Inc., Corning, NY, USA) 24h before the assay. The cells were loaded with 5 μM Fluo-4AM (Molecular Probes, Eugene, OR, USA) in assay buffer for 30 min at 27°C, washed with assay buffer, and incubated for 15 min at 27°C. Subsequently, the cytosolic Ca^2+ concentration was measured using a Flex StationIII microplate reader (Molecular Devices). Sample solutions were loaded after a 17s baseline scan and ligand-induced changes in fluorescence intensity (excitation, 486 nm; emission, 516 nm; cutoff, 515 nm) were monitored at 2.1s intervals for 120s. The response of each well is represented as the change in relative fluorescence units (ΔRFU), which was defined as the maximum fluorescence value minus the minimum fluorescence value. All experiments were performed at least three times. Plots of amplitude versus ligand concentration were fitted using Hill’s equations.
Dose-response analyses were carried out with GraphPad Prism (GraphPad Software Inc., San Diego, CA, USA). The data represent the mean ± SEM.
Experiment [4] deals with T2, hTRPA1. Kind of experiment: Fura-2 AM ratiometric Ca2+ imaging of hTRPA1-Flp-In 293 stable cells. The settings on record: for activation of hTRPA1 (cytosolic Ca2+ influx): extract 300 μg/mL, AITC 30 μM, 4-allylanisole 1 mM; for activation of hTRPA1 (cytosolic Ca2+ influx) / block of Ca2+ influxes induced by the five active compounds in hTRPA1 cells: p-anisaldehyde 1 mM, L-carveol 300 μM, trans-p-methoxycinnamaldehyde 100 μM, methyl eugenol 300 μM; for block of Ca2+ influxes induced by the five active compounds in hTRPA1 cells / inhibition of Ca2+ responses induced by AITC and the A.rugosa extract in hTRPA1 cells: antagonist: RR 30 μM, HC-030031 100 μM; for block of Ca2+ influxes induced by the five active compounds in hTRPA1 cells: agonists 4-allylanisole 1 mM; for inhibition of Ca2+ responses induced by AITC and the A.rugosa extract in hTRPA1 cells: hTRPA1-Flp-In 293 stable cells.
Description: Flp-In 293 cells stably expressing hTRPA1 [22] were a gift from Dr. Takumi Misaka (University of Tokyo, Tokyo, Japan). The hTRPA1-expressing cells were maintained in Dulbecco’s modified Eagle’s medium (DMEM; Invitrogen, Carlsbad, CA, USA) containing 10% fetal bovine serum (FBS; Invitrogen) and 0.2% hygromycin B (Invitrogen). Flp-In 293 cells (Invitrogen: R750-07) were maintained in DMEM containing 10% FBS. All cells were incubated at 37°C in a humidified atmosphere containing 5% CO2. Cultured hTRPA1-expressing cells and Flp-In 293 cells were seeded onto 96-well black-wall plates for 24 h prior to their use in experiments.
as §1

Setting [5] is: hTRPA1-Flp-In 293 stable cells, Fluo-4 AM.
Where [6] appears, read: hTRPA1-Flp-In 293 stable cells, Fluo-4 AM, ΔRFU, Hill fit, seven independent experiments, mean ± SEM, read-out: EC50 of Ca2+ response.

Where two headings read alike, the source gives them in different places.

T1 sequence (Q8NER1 whole entry): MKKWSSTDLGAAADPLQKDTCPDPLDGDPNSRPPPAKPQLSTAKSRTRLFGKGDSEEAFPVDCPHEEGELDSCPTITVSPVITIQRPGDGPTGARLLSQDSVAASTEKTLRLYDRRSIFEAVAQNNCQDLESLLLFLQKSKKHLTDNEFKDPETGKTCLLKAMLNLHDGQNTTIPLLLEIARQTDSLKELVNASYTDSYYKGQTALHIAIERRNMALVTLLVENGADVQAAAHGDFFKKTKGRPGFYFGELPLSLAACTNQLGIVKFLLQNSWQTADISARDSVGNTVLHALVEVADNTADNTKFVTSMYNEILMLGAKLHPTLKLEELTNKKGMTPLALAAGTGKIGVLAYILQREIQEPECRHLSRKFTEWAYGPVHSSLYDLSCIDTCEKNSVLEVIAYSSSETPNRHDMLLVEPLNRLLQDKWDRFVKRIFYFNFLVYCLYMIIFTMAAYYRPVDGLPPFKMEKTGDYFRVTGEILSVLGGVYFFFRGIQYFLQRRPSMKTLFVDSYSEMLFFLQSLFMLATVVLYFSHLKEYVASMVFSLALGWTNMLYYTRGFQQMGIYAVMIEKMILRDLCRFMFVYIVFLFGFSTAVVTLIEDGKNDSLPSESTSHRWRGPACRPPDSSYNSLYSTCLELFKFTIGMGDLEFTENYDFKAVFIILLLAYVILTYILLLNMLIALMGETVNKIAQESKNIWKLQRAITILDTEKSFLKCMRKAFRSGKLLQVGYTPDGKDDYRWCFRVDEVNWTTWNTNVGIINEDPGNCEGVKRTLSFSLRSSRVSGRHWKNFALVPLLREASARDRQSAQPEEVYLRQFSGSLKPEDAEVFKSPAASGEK

With `C=CCc1ccc(OC)cc1` [4-allylanisole], in experiment [1], the “activation of hTRPV1 (cytosolic Ca2+ influx, responding cells)” value (from here on “activation of hTRPV1”) was “did not activate hTRPV1”. Besides, in experiment [2], the “induction of hTRPA1 inward currents” value is “induced inward currents”. Further, in experiment [3] (setting [5]), the “efficacy (maximum ΔRFU) relative to that of AITC” value was found to be 59.9% and the “Hill slope of Ca2+ concentration-response curve” value (“Hill slope” below) is recorded as 1.7±0.3. For the same molecule, in experiment [3] (setting [6]), the EC50 worked out at 1540 ± 316 µM. Also, the “agonist type at hTRPA1 (full / partial)” value in experiment [3] is “partial agonists”. Moreover, in experiment [4], the “activation of hTRPA1 (cytosolic Ca2+ influx)” value (from here on “activation of hTRPA1”) is given as “activated hTRPA1”.

As to `C=CCN=C=S` [AITC, allyl isothiocyanate, reference compound], the “induction of hTRPA1 inward currents” value in experiment [2] was “induced inward currents”. Further, the “Hill slope” value in experiment [3] (setting [5]) was 1.6±0.5. The “activation of hTRPA1” value in experiment [4] is “successfully activated”.

Regarding `Oc1cc2c(cc1O)CN(C(=S)NCCc1ccc(Cl)cc1)CCC2` [CPZ, capsazepine, reference compound], the “inhibition of Ca2+ responses induced by the A.rugosa extract in hTRPV1 cells” value in experiment [1] is “inhibited”.

Take `CC(C)c1ccc(NC(=O)Cn2cnc3c2c(=O)n(C)c(=O)n3C)cc1` [HC-030031, reference compound]: in experiment [4], the “block of Ca2+ influxes induced by the five active compounds in hTRPA1 cells” value is “mostly blocked”; the “inhibition of Ca2+ responses induced by AITC and the A.rugosa extract in hTRPA1 cells” value was “inhibited”.

Regarding `C=C(C)[C@@H]1CC=C(C)C(O)C1` (stereo partly drawn) [L-carveol], in experiment [1], the “activation of hTRPV1” value is on record as “did not activate hTRPV1”. In experiment [2], the “induction of hTRPA1 inward currents” value is recorded as “induced inward currents”. In experiment [3], the concentration giving a half-maximal response (EC50) was 189 ± 26.8 µM and the “agonist type at hTRPA1 (full / partial)” value was “almost full agonists”. Moreover, the “Hill slope” value in experiment [3] (setting [5]) was determined as 2.9±0.5. Besides, in experiment [4], the “activation of hTRPA1” value is listed as “activated hTRPA1”.

`N.N.N.N.N.N.N.N.N.N.N.N.N.N.[Cl-].[Cl-].[Cl-].[Cl-].[Cl-].[Cl-].[O-2].[O-2].[Ru+3].[Ru+3].[Ru+4]` [RR, ruthenium red, reference compound]: the “inhibition of Ca2+ responses induced by the A.rugosa extract in hTRPV1 cells” value in experiment [1] is “inhibited”. The “block of hTRPA1 currents evoked by AITC and five compounds” value in experiment [2] (30 μM RR, pre-incubation 30 s before second application of compounds) is on record as “completely blocked”. In addition, in experiment [4], the “block of Ca2+ influxes induced by the five active compounds in hTRPA1 cells” value was “mostly blocked”; the “inhibition of Ca2+ responses induced by AITC and the A.rugosa extract in hTRPA1 cells” value is reported as “inhibited”.

Consider `COc1cc(CNC(=O)CCCC/C=C/C(C)C)ccc1O` [capsaicin, reference compound], for which the “activation of hTRPV1” value in experiment [1] is “significantly stimulated”.

On to `C=CCc1ccc(OC)c(OC)c1` [methyl eugenol], for which the “activation of hTRPV1” value in experiment [1] was “did not activate hTRPV1”. For the same molecule, in experiment [2], the “induction of hTRPA1 inward currents” value is reported as “induced inward currents”. The “Hill slope” value in experiment [3] (setting [5]) is reported as 1.4±0.3. Moreover, the EC50 in experiment [3] (setting [6]) turned out to be 160 ± 21.9 µM. Besides, the “agonist type at hTRPA1 (full / partial)” value in experiment [3] was “almost full agonists”. Besides, in experiment [4], the “activation of hTRPA1” value is listed as “activated hTRPA1”.

On to `COc1ccc(C=O)cc1` [p-anisaldehyde], for which the “activation of hTRPV1” value in experiment [1] is recorded as “did not activate hTRPV1”. Also, the “induction of hTRPA1 inward currents” value in experiment [2] was “induced inward currents”. For the same molecule, in experiment [3] (setting [5]), the “efficacy (maximum ΔRFU) relative to that of AITC” value is 64.2% and the “Hill slope” value is 2.0±0.5. Further, in experiment [3] (setting [6]), the EC50 is 546 ± 73 µM. Further, the “agonist type at hTRPA1 (full / partial)” value in experiment [3] is recorded as “partial agonists”. Besides, the “activation of hTRPA1” value in experiment [4] is listed as “activated hTRPA1”.

Turning to `COc1ccc(/C=C/C=O)cc1` [trans-p-methoxycinnamaldehyde], in experiment [1], the “activation of hTRPV1” value is reported as “did not activate hTRPV1”. Further, the “induction of hTRPA1 inward currents” value in experiment [2] is given as “induced inward currents”. In addition, the “Hill slope” value in experiment [3] (setting [5]) is 2.2±0.7. Moreover, the half-maximal effective concentration (EC50) in experiment [3] (setting [6]) was 29.8 ± 14.9 µM. Besides, in experiment [3], the “agonist type at hTRPA1 (full / partial)” value was “almost full agonists”. Further, the “activation of hTRPA1” value in experiment [4] was “activated hTRPA1”.

For the origin of these results see paper PMC4433173, “Five hTRPA1 Agonists Found in Indigenous Korean Mint, Agastache rugosa” (PLoS ONE, 2015).
